The source of these data is BindingDB's records for doi:10.1021/jm000290u (Purdue University, 2001).

The term pEC50 denotes −log10 of the EC50, conventionally taken in molar units.

pEC50: −log10 of the molar value.

The target in the test is Human immunodeficiency virus 2. Nature of the test: In vitro inhibition of cytopathic effect was determined against HIV-2 ROD in MT-4 cells using MTT cytoprotection assay. On the technique in general: Cytopathic effects are the visible damage that an infection or toxin causes in cultured cells.
For `CC(C)CCCC(C)[C@H]1CCC2C3CCC4C[C@@H](CCC=C(c5cc(Cl)c(O)c(C(=O)N[C@@H](CCC(=O)O)C(=O)O)c5)c5cc(Cl)c(O)c(C(=O)N[C@@H](CCC(=O)O)C(=O)O)c5)CC[C@]4(C)C3CC[C@@]21C` (stereo not given in full) [2-(3-Chloro-5-{1-[3-chloro-5-(1,3-dicarboxy-propylcarbamoyl)-4-hydroxy-phenyl]-4-[17-(1,5-dimethyl-hexyl)-10,13-dimethyl-hexadecahydro-cyclopenta[a]phenanthren-3-yl]-but-1-enyl}-2-hydroxy-benzoylamino)-pentanedioic acid], the pEC50 was 4.16.

As to `CC(C)CCCC(C)[C@H]1CCC2C3CCC4C[C@@H](CCCC(c5cc(Cl)c(O)c(C(=O)N[C@@H](CCC(=O)O)C(=O)O)c5)c5cc(Cl)c(O)c(C(=O)N[C@@H](CCC(=O)O)C(=O)O)c5)CC[C@]4(C)C3CC[C@@]21C` (stereo not given in full) [2-(3-Chloro-5-{1-[3-chloro-5-(1,3-dicarboxy-propylcarbamoyl)-4-hydroxy-phenyl]-4-[17-(1,5-dimethyl-hexyl)-10,13-dimethyl-hexadecahydro-cyclopenta[a]phenanthren-3-yl]-butyl}-2-hydroxy-benzoylamino)-pentanedioic acid], the pEC50 is 4.14. This pEC50 and that of the compound before are within 0.2 log units of each other.

Take `CC(C)CCCC(C)[C@H]1CCC2C3CCC4C[C@@H](CCC=C(c5cc(Cl)c(O)c(C(=O)N[C@@H](Cc6ccccc6)C(=O)O)c5)c5cc(Cl)c(O)c(C(=O)N[C@@H](Cc6ccccc6)C(=O)O)c5)CC[C@]4(C)C3CC[C@@]21C` (stereo partly drawn) [2-(5-{1-{3-[1-carboxy-2-phenyl-(1S)-ethylcarbamoyl]-5-chloro-4-hydroxyphenyl}-4-[1-(1,5-dimethylhexyl)-9a,11a-dimethylperhydrocyclopenta[a]phenanthren-7-yl]-1-butenyl}-3-chloro-2-hydroxyphenylcarboxamido)-3-phenyl-(2S)-propanoic acid]: the pEC50 was below 4.21.

In turn, `CC(C)CCCC(C)[C@H]1CCC2C3CCC4C[C@@H](CCC=C(c5cc(Cl)c(OCc6ccc(-c7cccc(C(=O)O)c7)cc6)c(C(=O)O)c5)c5cc(Cl)c(OCc6ccc(-c7cccc(C(=O)O)c7)cc6)c(C(=O)O)c5)CC[C@]4(C)C3CC[C@@]21C` (stereo partly drawn) [3'',3'''-Dichloro-5'',5'''-dicarboxy-4'',4'''-di[p-(3-carboxy-phenyl)benzyloxy]-4',4'-diphenyl-3beta-(3'-buten-1-yl)cholestane] gave a pEC50 below 4.02.

`CC(C)CCCC(C)[C@H]1CCC2C3CCC4C[C@@H](CCC=C(c5cc(Cl)c(OCc6ccc(-c7ccc(C(=O)O)cc7)cc6)c(C(=O)O)c5)c5cc(Cl)c(OCc6ccc(-c7ccc(C(=O)O)cc7)cc6)c(C(=O)O)c5)CC[C@]4(C)C3CC[C@@]21C` (stereo partly drawn) [3'',3'''-Dichloro-5'',5'''-dicarboxy-4'',4'''-di[p-(4-carboxy-phenyl)benzyloxy]-4',4'-diphenyl-3beta-(3'-buten-1-yl)cholestane]: the pEC50 was below 4.00.

The compound `CC(C)CCCC(C)[C@H]1CCC2C3CCC4C[C@@H](CCC=C(c5cc(Cl)c(OCc6ccc(CC(=O)O)cc6)c(C(=O)O)c5)c5cc(Cl)c(OCc6ccc(CC(=O)O)cc6)c(C(=O)O)c5)CC[C@]4(C)C3CC[C@@]21C` (stereo partly drawn) [3'',3'''-Dichloro-5'',5'''-dicarboxy-4'',4'''-di[p-(carboxymethyl)benzyloxy]-4',4'-diphenyl-3beta-(3'-buten-1-yl)cholestane] showed a pEC50 of 4.08.

For the compound `CC(C)CCCC(C)[C@H]1CCC2C3CCC4C[C@@H](CCCC(c5cc(Cl)c(OCc6ccc(C(=O)O)cc6)c(C(=O)O)c5)c5cc(Cl)c(OCc6ccc(C(=O)O)cc6)c(C(=O)O)c5)CC[C@]4(C)C3CC[C@@]21C` (stereo partly drawn) [3'',3'''-Dichloro-5'',5'''-dicarboxy-4'',4'''-di[p-carboxybenzyloxy]-4',4'-diphenyl-3beta-(1-butyl)cholestane], the pEC50 is 4.15. This pEC50 and that of the compound before are within 0.2 log units of each other.

On to `CC(C)CCCC(C)[C@H]1CCC2C3CCC4C[C@@H](CCC=C(c5cc(Cl)c(O)c(C(=O)NCCC(=O)O)c5)c5cc(Cl)c(O)c(C(=O)NCCC(=O)O)c5)CC[C@]4(C)C3CC[C@@]21C` (stereo not given in full) [3-(5-{1-[3-(2-Carboxy-ethylcarbamoyl)-5-chloro-4-hydroxy-phenyl]-4-[17-(1,5-dimethyl-hexyl)-10,13-dimethyl-hexadecahydro-cyclopenta[a]phenanthren-3-yl]-but-1-enyl}-3-chloro-2-hydroxy-benzoylamino)-propionic acid], for which the pEC50 is 3.92.

As for `CC(C)CCCC(C)[C@H]1CCC2C3CCC4C[C@@H](CCC=C(c5cc(Cl)c(O)c(C(=O)O)c5)c5cc(Cl)c(O)c(C(=O)O)c5)CC[C@]4(C)C3CC[C@@]21C` (stereo partly drawn) [5-{1-(3-carboxy-5-chloro-4-hydroxyphenyl)-4-[1-(1,5-dimethylhexyl)-9a,11a-dimethyl-(9aS,11aR)-perhydrocyclopenta[a]phenanthren-7-yl]-1-butenyl}-3-chloro-2-hydroxybenzoic acid], the pEC50 was 5.40.

For `CC(C)CCCC(C)[C@H]1CCC2C3CCC4C[C@@H](CCC=C(c5cc(Cl)c(O)c(C(=O)N[C@@H](CC(=O)O)C(=O)O)c5)c5cc(Cl)c(O)c(C(=O)N[C@@H](CC(=O)O)C(=O)O)c5)CC[C@]4(C)C3CC[C@@]21C` (stereo partly drawn) [(S)-2-(3-Chloro-5-{1-[3-chloro-5-((S)-1,2-dicarboxy-ethylcarbamoyl)-4-hydroxy-phenyl]-4-[(3S,10S,13R,17R)-17-(1,5-dimethyl-hexyl)-10,13-dimethyl-hexadecahydro-cyclopenta[a]phenanthren-3-yl]-but-1-enyl}-2-hydroxy-benzoylamino)-succinic acid], the pEC50 was 3.91.

`CC(C)CCCC(C)[C@H]1CCC2C3CCC4C[C@@H](CCC=C(c5cc(Cl)c(OCc6ccc(C(=O)O)cc6)c(C(=O)O)c5)c5cc(Cl)c(OCc6ccc(C(=O)O)cc6)c(C(=O)O)c5)CC[C@]4(C)C3CC[C@@]21C` (stereo not given in full) [Cosalane analogue] gave a pEC50 of 4.66. This pEC50 is 0.75 log units higher than that of the compound before.

`CC(C)CCCC(C)[C@H]1CCC2C3CCC4C[C@@H](CCC=C(c5cc(Cl)c(OCc6cccc(C(=O)O)c6)c(C(=O)O)c5)c5cc(Cl)c(OCc6cccc(C(=O)O)c6)c(C(=O)O)c5)CC[C@]4(C)C3CC[C@@]21C` (stereo not given in full) [Cosalane analogue] gave a pEC50 below 4.54.

`CC(C)CCCC(C)[C@H]1CCC2C3CCC4C[C@@H](CCC=C(c5cc(Cl)c(OCc6ccccc6C(=O)O)c(C(=O)O)c5)c5cc(Cl)c(OCc6ccccc6C(=O)O)c(C(=O)O)c5)CC[C@]4(C)C3CC[C@@]21C` (stereo not given in full) [Cosalane analogue]: the pEC50 was below 4.43.

As for `COc1c(Cl)cc(Cc2cc(C(=CCC[C@H]3CC[C@@]4(C)C(CCC5C4CC[C@@]4(C)C5CC[C@@H]4C(C)CCCC(C)C)C3)c3cc(Cc4cc(Cl)c(OC)c(C(=O)O)c4)c(OC)c(C(=O)O)c3)cc(C(=O)O)c2OC)cc1C(=O)O` (stereo not given in full) [Cosalane analogue], the pEC50 was 4.70.

`COc1ccc(C(=O)Nc2cc(C(=CCC[C@H]3CC[C@@]4(C)C(CCC5C4CC[C@@]4(C)C5CC[C@@H]4C(C)CCCC(C)C)C3)c3cc(NC(=O)c4ccc(OC)c(C(=O)O)c4)c(OC)c(C(=O)O)c3)cc(C(=O)O)c2OC)cc1C(=O)O` (stereo not given in full) [Cosalane analogue] had a pEC50 below 4.18.
